{"source": "patent US10308617B2", "about": "“Triazole benzamide derivatives and the compositions and methods of treatment regarding the same” (An2H Discovery Limited, priority 2016, dated 2019)", "data": [{"biological_target": "T1, Parkin ligase (Homo sapiens, UniProt O60260)", "T1 sequence (O60260 1-465)": "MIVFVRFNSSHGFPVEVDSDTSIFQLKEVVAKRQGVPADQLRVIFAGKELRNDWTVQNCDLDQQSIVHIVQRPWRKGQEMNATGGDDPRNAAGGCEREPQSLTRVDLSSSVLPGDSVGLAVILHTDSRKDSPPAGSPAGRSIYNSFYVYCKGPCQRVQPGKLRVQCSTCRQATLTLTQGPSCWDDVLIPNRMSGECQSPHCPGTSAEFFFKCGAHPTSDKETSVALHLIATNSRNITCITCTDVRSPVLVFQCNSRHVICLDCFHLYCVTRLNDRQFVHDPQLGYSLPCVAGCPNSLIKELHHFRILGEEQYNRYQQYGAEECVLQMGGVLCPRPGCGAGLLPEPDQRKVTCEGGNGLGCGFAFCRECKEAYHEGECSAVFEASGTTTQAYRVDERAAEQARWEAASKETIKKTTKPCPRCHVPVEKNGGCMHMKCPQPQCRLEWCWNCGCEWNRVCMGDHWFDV", "experiment": "Activity-Based Probe Assay using an Ubiquitin vinyl sulfone probe (TR-FRET)", "type": "biochemical", "settings": "Parkin activation, HA-Ub-VS probe, heat activated Parkin; read-out: Probe Assay EC50 (μM) [Example 2]", "method": "An Ubiquitin vinyl sulfone probe can be used that irreversibly binds to the active site cysteine of Parkin ligase. Covalent attachment of the probe to the Parkin can be monitored by TR-FRET. Candidate activator compounds can be identified by increasing the activity of Parkin ligase due to an increase in TR-FRET signal. Screening for activating compounds can be distinguished from the controls as follows: • 100% activation signal=Heat activated Parkin+100 nM control activator in DMSO. • 0% activation signal=Heat activated Parkin+DMSO only. • Parkin activators can be identified by an increase of the 0% activation signal TR-FRET signal.\n• Assay Plate: White 384 well plate (Corning 3572) • Enzyme: Parkin-His tagged 203 μM (10.5 mg/ml) • Probe: Ubiquitin vinyl-sulfone (HA-Ub-VS Boston Biochem U-212) • DMSO: DMSO (Sigma cat # D4540-100ML) • Reaction Buffer: 50 mM HEPES (pH 8.5), 150 mM NaCl, 0.01% Tween 20, 0.1% BSA • Detection Buffer: 50 mM HEPES (pH 8.5), 150 mM NaCl, 0.01% Tween 20, 0.1% BSA, 800 mM KF • Detection Reagent A: 2.6 nM Anti-6HIS-Eu cryptate and 40 nM Anti-HA-XL665 in detection buffer • Eu cryptate: Anti-6HIS-Eu cryptate (CisBio 61HISKLA) • XL665: Anti-HA-XL665 (CisBio 610HAXLA) Enzyme Reaction (15 min pre incubation Parkin with activator only) • Parkin: 40 nM • HA-Ub-VS Probe: 70 nM • Activator/DMSO: 2× Activator/2% DMSO • Reaction time: 60 minutes • Temperature: 22° C. • Total volume: 10 μl reaction Detection Reaction • Take 10 μl of Enzyme Reaction above and add 10 μl detection Reagent A under the following conditions: • Reaction time: 60 minutes • Temperature: 22° C. • Total volume: 20 μl\nAssay procedure (Using HP D-300 compound dispenser and Bravo for the operation): • 1) Heat activate Parkin in reaction buffer (500 μl/1.5 ml tube: Eppendorf Thermomixer 5 minutes, 400 rpm at 58° C. and put on ice until needed). • 2) Load assay plate wells with 4.8 μl 84.5 nM Parkin in reaction buffer by use of Bravo. • 3) Deliver 0.2 μl 200× activator candidates in DMSO by use of HP D-300 compound dispenser. Highest 200× concentration=[…] and then twofold dilutions. • 4) Spin 1000 rpm, 2 minutes, at room temp. • 5) Incubate plate for 15 minutes at room temp. • 6) Add 5 μl 140 nM HA-Ub-VS Probe in reaction buffer by use of Bravo. • 7) Spin 1000 rpm, 2 minutes, at room temp. • 8) Incubate plate for 60 minutes at room temp. • 9) Add 10 μl 2.6 nM Anti-6HIS-Eu cryptate and 40 nM Anti-HA-XL665 in detection buffer. • 10) Spin 1000 rpm, 2 minutes, at room temp. • 11) Incubate plate for 60 minutes at room temp. • 12) Read plates on Perkin Elmer Envision instrument with the following parameters: • LANCE dual laser protocol loaded into the Envision® software • Top Mirror: LANCE/DELFIA Duel/Bias (Bar code 446) • Emission Filter: APC 665 EM (Bar code 205) • 2nd Emission Filter: Europium 615 EM (Bar code 203) • Read 655 nm (channel 1) and 615 nm (channel 2) wavelengths on Envision®\nData Analysis: The Data can be read in CSV files. There are two tables in those CSV files, which are the values of 655 nm (channel 1) and 615 nm (channel 2) wavelengths respectively. The data is converted to an HTRF Ratio=(Channel 1/Channel 2)*10,000\nThe average of all the 0 uM controls (DMSO only)=BKGD (Background—0% activation). Subtract BKGD from each HTRF Ratio value=HTRF-BKGD. The average of all the […] 100 nM control activator in DMSO controls=Max (100% activation). The following equation is then used to calculate % Activation for each well/candidate as follows: % Activation=(HTRF-BKGD/Max)*100.\nGraphpad Prisim was used with Transform X values: X=Log(X) and nonlinear regression (dose-response-stimulation): Log(agonist) vs Response—variable slope (four parameters) with constrains set to Bottom=0 and Top=100.\nThe Activity-Based Probe Assay was performed with various compounds in Tables 1-3.", "units": {"EC50": "µM"}, "values": [{"compound": "Cc1ccccc1C(=O)Nc1nc(NC(=O)c2ccccn2)n(-c2ccccc2)n1", "note": "[Compound A3]", "EC50": "> 100"}, {"compound": "Cc1ccccc1C(=O)Nc1nc(NC(=O)c2ccccc2C)n(-c2ccncc2)n1", "note": "[Compound B3]", "EC50": "> 100"}, {"compound": "Cc1ccccc1C(=O)Nc1nc(NC(=O)c2ccccc2C)n(C(C)(C)C)n1", "note": "[Compound D3]", "EC50": "> 100"}, {"compound": "Cc1ccccc1C(=O)Nc1nc(NC(=O)c2ccccc2F)n(-c2ccccc2)n1", "note": "[Compound E3]", "EC50": "> 100"}, {"compound": "Cc1cccc(C(=O)Nc2nc(NC(=O)c3cccc(C)c3)n(-c3ccccc3)n2)c1", "note": "[Compound F3]", "EC50": "> 100"}, {"compound": "Cc1ccccc1C(=O)Nc1nc(-c2ccncn2)nn1-c1ccccc1", "note": "[Compound G3]", "EC50": 74}, {"compound": "Cc1ccccc1C(=O)Nc1nc(NC(=O)c2ccccc2C)n(CC(C)C)n1", "note": "[Compound I3]", "EC50": "> 100"}, {"compound": "Cc1ccccc1C(=O)Nc1nc(NC(=O)c2ccccc2C)n(C2CCCCC2)n1", "note": "[Compound J3]", "EC50": 37}, {"compound": "COc1ccccc1C(=O)Nc1nc(NC(=O)c2ccccc2C)nn1-c1ccccc1", "note": "[Compound K3]", "EC50": 17}, {"compound": "Cc1ccccc1C(=O)Nc1nc(NCCc2ccccc2)n(-c2ccccc2)n1", "note": "[Compound L3]", "EC50": "> 100"}, {"compound": "Cc1ccccc1C(=O)Nc1nc(NC(=O)c2ccncc2)n(-c2ccccc2)n1", "note": "[Compound M3]", "EC50": "> 100"}, {"compound": "Cc1ccccc1C(=O)Nc1nc(N)n(-c2ccccc2)n1", "note": "[Compound N3]", "EC50": "> 100"}, {"compound": "Cc1ccccc1C(=O)Nc1nc(NC(=O)c2ccccc2C)n(-c2ccc(F)cc2)n1", "note": "[Compound O3]", "EC50": "> 100"}, {"compound": "Cc1ccccc1C(=O)Nc1nc(NC(=O)c2ccccn2)n(-c2ccccc2)n1", "note": "[Compound P3]", "EC50": 9}, {"compound": "Cc1ccccc1C(=O)Nc1nc(NC(=O)c2ccccc2C)n(-c2cccnc2)n1", "note": "[Compound Y2]", "EC50": "> 100"}]}]}
